# Values joined by “and” are separate entries in the source; they are usually repeats but may differ in a detail not shown here. Equal entries are not always repeated. Results filed as inconclusive are left out.
# Test system: CD8F1 mice, subcutaneous mammary adenocarcinoma, T/C%
# Test: NCI In Vivo Anticancer Drug Screen. Data for tumor model Mammary Adenocarcinoma CD8F1 (subcutaneous) in CD8F1
# Details: higher = larger tumour
# How it was run: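 Mice carrying transplanted tumors received test compound, and survival or tumor size was recorded. Each value is the treated-group measurement divided by the corresponding measurement in vehicle-dosed controls.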
# [1] = endpoint: median tumor weight change, dose: 125.0 mg/kg/injection, schedule: Q01DX001 (ip), vehicle: saline with Tween-80
compound,measurement,setting,value
COc1cc2cc3cc4cc(OC)c(OC)cc4c(C)[n+]3cc2cc1OC (tested in a mixture with another compound),T/C,"endpoint: median tumor weight (est.), dose: 12.5 mg/kg/injection, schedule: Q07DX005 (ip), vehicle: saline",68 % of control
same,T/C,"endpoint: median tumor weight (est.), dose: 25.0 mg/kg/injection, schedule: Q07DX005 (ip), vehicle: saline",88 % of control
same,T/C,"endpoint: median tumor weight (est.), dose: 50.0 mg/kg/injection, schedule: Q07DX005 (ip), vehicle: saline",82 % of control
same,T/C,"endpoint: median tumor weight (est.), dose: 100.0 mg/kg/injection, schedule: Q07DX005 (ip), vehicle: saline",90 % of control
same,T/C,"endpoint: median tumor weight (est.), dose: 200.0 mg/kg/injection, schedule: Q07DX005 (ip), vehicle: saline",39 % of control
O=C1C(NCC(O)CO)=C(N2CC2)C(=O)C(NCC(O)CO)=C1N1CC1 (stereo not given),T/C,"endpoint: median tumor weight change, dose: 4.0 mg/kg/injection, schedule: Q01DX001 (ip), vehicle: saline",123 % of control
same,T/C,"endpoint: median tumor weight change, dose: 4.0 mg/kg/injection, schedule: Q01DX001 (ip), vehicle: suspension in saline",55 % of control
same,T/C,"endpoint: median tumor weight change, dose: 8.0 mg/kg/injection, schedule: Q01DX001 (ip), vehicle: saline",19 % of control
same,T/C,"endpoint: median tumor weight change, dose: 8.0 mg/kg/injection, schedule: Q01DX001 (ip), vehicle: suspension in saline",35 % of control (2×) and 55 % of control
same,T/C,"endpoint: median tumor weight change, dose: 16.0 mg/kg/injection, schedule: Q01DX001 (ip), vehicle: saline",3 % of control
CC(=O)c1cccc(NC2C(N)C(NC(=O)N(C)C)(C(C)O)C(C)(O)C2(O)COC(=O)c2c(C)cccc2O)c1 (stereo not given),T/C,"endpoint: median tumor weight (est.), dose: 1.0 mg/kg/injection, schedule: Q07DX005 (ip), vehicle: suspension in saline",162 % of control
same,T/C,"endpoint: median tumor weight (est.), dose: 1.8 mg/kg/injection, schedule: Q07DX005 (ip), vehicle: saline with Tween-80",67 % of control and 77 % of control
same,T/C,"endpoint: median tumor weight (est.), dose: 2.0 mg/kg/injection, schedule: Q07DX005 (ip), vehicle: suspension in saline",78 % of control
same,T/C,"endpoint: median tumor weight (est.), dose: 3.6 mg/kg/injection, schedule: Q07DX005 (ip), vehicle: saline with Tween-80",72 % of control and 93 % of control
same,T/C,"endpoint: median tumor weight (est.), dose: 4.0 mg/kg/injection, schedule: Q07DX005 (ip), vehicle: suspension in saline",78 % of control
same,T/C,"endpoint: median tumor weight (est.), dose: 7.2 mg/kg/injection, schedule: Q07DX005 (ip), vehicle: saline with Tween-80",55 % of control and 78 % of control
same,T/C,"endpoint: median tumor weight (est.), dose: 8.0 mg/kg/injection, schedule: Q07DX005 (ip), vehicle: suspension in saline",119 % of control
same,T/C,"endpoint: median tumor weight (est.), dose: 14.4 mg/kg/injection, schedule: Q07DX005 (ip), vehicle: saline with Tween-80",23 % of control and 44 % of control
[Cl][Mn][Cl],T/C,"endpoint: median tumor weight (est.), dose: 64.0 mg/kg/injection, schedule: Q07DX005 (ip), vehicle: saline",111 % of control
same,T/C,"endpoint: median tumor weight (est.), dose: 128.0 mg/kg/injection, schedule: Q07DX005 (ip), vehicle: saline",66 % of control
CCOC(=O)c1[nH]c2cccc3c2c1CC(Br)C3=O (stereo not given),T/C,[1],86 % of control
same,T/C,"endpoint: median tumor weight change, dose: 250.0 mg/kg/injection, schedule: Q01DX001 (ip), vehicle: saline with Tween-80",52 % of control
OCC1OC(n2cnc3c(NO)ncnc32)C(O)C1O (stereo not given),T/C,"endpoint: median tumor weight (est.), dose: 12.5 mg/kg/injection, schedule: Q07DX005 (ip), vehicle: Klucel (hydroxypropylcellulose) (HPC)",104 % of control
same,T/C,"endpoint: median tumor weight (est.), dose: 25.0 mg/kg/injection, schedule: Q07DX005 (ip), vehicle: Klucel (hydroxypropylcellulose) (HPC)",66 % of control
same,T/C,"endpoint: median tumor weight (est.), dose: 50.0 mg/kg/injection, schedule: Q07DX005 (ip), vehicle: Klucel (hydroxypropylcellulose) (HPC)",85 % of control
same,T/C,"endpoint: median tumor weight (est.), dose: 100.0 mg/kg/injection, schedule: Q07DX005 (ip), vehicle: Klucel (hydroxypropylcellulose) (HPC)",91 % of control
same,T/C,"endpoint: median tumor weight (est.), dose: 200.0 mg/kg/injection, schedule: Q07DX005 (ip), vehicle: Klucel (hydroxypropylcellulose) (HPC)",69 % of control
same,T/C,"endpoint: median tumor weight (est.), dose: 400.0 mg/kg/injection, schedule: Q07DX005 (ip), vehicle: Klucel (hydroxypropylcellulose) (HPC)",113 % of control
C[CH2][Ge]([CH2]C)[CH2]C.C[CH2][Ge]([CH2]C)[CH2]C.C[CH2][Ge]([CH2]C)[O][Ge]([CH2]C)[CH2]C,T/C,[1],81 % of control
same,T/C,"endpoint: median tumor weight change, dose: 500.0 mg/kg/injection, schedule: Q01DX001 (ip), vehicle: saline with Tween-80",114 % of control
Cc1cc(N/N=C/c2ccccn2)nc2ccccc12,T/C,"endpoint: median tumor weight change, dose: 31.25 mg/kg/injection, schedule: Q01DX001 (ip), vehicle: Klucel (hydroxypropylcellulose) (HPC)",92 % of control
same,T/C,"endpoint: median tumor weight change, dose: 62.5 mg/kg/injection, schedule: Q01DX001 (ip), vehicle: Klucel (hydroxypropylcellulose) (HPC)",100 % of control
same,T/C,"endpoint: median tumor weight change, dose: 125.0 mg/kg/injection, schedule: Q01DX001 (ip), vehicle: Klucel (hydroxypropylcellulose) (HPC)",96 % of control
same,T/C,"endpoint: median tumor weight change, dose: 250.0 mg/kg/injection, schedule: Q01DX001 (ip), vehicle: Klucel (hydroxypropylcellulose) (HPC)",59 % of control
Nc1cc2c3c(cccc3c1)C(=O)N(CCN1CCCC1)C2=O,T/C,"endpoint: median tumor weight change, dose: 15.63 mg/kg/injection, schedule: Q01DX001 (ip), vehicle: saline with Tween-80",114 % of control

# Source: PubChem BioAssay AID220 (DTP/NCI, 2004)
